Test results reported in patent US9540378B2, “Composition comprising purine derivatives or salt thereof for preventing or treating atopic dermatitis” (DAEWOONG CO., LTD., priority 2012, dated 2017).
Marks after values point to notes of the source that are not given here.

What was measured:
[1] = tested on: NC/Nga mice, animal models of atopic dermatitis; assay: In vivo inhibitory activity against atopic dermatitis in 2,4-DNFB-induced NC/Nga mice; details: for Reducing ratio (%) Dermatitis score: applied on affected sites twice per day for 10 days; for Reducing ratio (%) Dermatitis score / Reducing ratio (%) Difference of left and right ear thicknesses / Reducing ratio (%) Epidermis thickness / Reducing ratio (%) Number of mast cells / Reducing ratio (%) Serum IgE level: vs atopic control group; for Reducing ratio (%) Difference of left and right ear thicknesses / Reducing ratio (%) Epidermis thickness / Reducing ratio (%) Number of mast cells / Reducing ratio (%) Serum IgE level: topical, 10 days
Description: NC/Nga mice (male, 6 weeks old), animal models of atopic dermatitis, were subject to complete hair removal of the back skin, and then left for 24 hours for healing the minute wounds on the skin. Atopic dermatitis was induced to the mice as follows. That is, a 0.2% solution of 2,4-DNFB (2,4-dinitrofluorobenzene) was prepared by dissolving in a mixed solvent of acetone and olive oil (3:1, v/v). The solution (150 μl) was applied on the hair-removed site of each mouse twice per week for 4 weeks, to induce atopic dermatitis.
The normal control group (NC) was subject to only complete hair removal of the back skin. In case of the atopic dermatitis-induced atopic control group (AC), only Vaseline was applied on the hair-removed sites. […] Each group includes 8 mice.
The therapeutic activity against atopic dermatitis was evaluated through measuring dermatitis scores, epidermis thicknesses, left and right ear thicknesses, serum IgE levels, and numbers of mast cells.
The dermatitis scores were determined by observing the affected sites at the time when the treatments were completed, and then evaluating the visual changes such as erythema, bleeding, scab, etc., so as to yield the scores ranging from 1 to 10. From the resulting dermatitis scores, the inhibition ratio of each test group was calculated in comparison with the atopic control group.
Skin tissue was taken in a size of 1 cm×1 cm from the central area of each affected site, fixed with 10% formaldehyde solution, embedded in paraffin film, and then cut into a 4 μm section. Each tissue section was subject to hematoxylin-eosin (H&E) staining, and then observed with an optical microscope (×200, 5 sites per tissue) so as to calculate the epidermis thickness thereof.
The left and right ear thicknesses were measured with a digital vernier caliper, at the time when the test was started and at the time when the test was completed.
The serum IgE level was measured in the blood collected from the heart of each group mice, according to ELISA (Enzyme-linked immunosorbent assay) methods.
Skin tissue was taken in a size of 0.5 cm×1 cm from the central area of each affected site, fixed with IHC zinc fixative formalin-free solution, embedded in paraffin film, and then cut into a 4 μm section. Each tissue section was adhered on a slide coated with poly-L-lysine, followed by removing the paraffin and hydrating. Each resulting section was subject to toluidine blue staining, and then observed with an optical microscope (×200, 3 sites per tissue) so as to measure the number of mast cells.
All measurement values were calculated in mean±standard deviation. Statistical significances were determined with ANOVA. ≦5% is considered as being statistically significant.

IL-6 = assay: Inhibition of inflammatory cytokine mRNA expression (RT-PCR) in LPS-treated Raw264.7 cells: IL-6; type: cell-based, mouse; details: 400 uM, LPS 1 ug/ml, 24 hours
Description: (§1) The inhibitory activity of the compound of Formula 1 was evaluated against the expressions of inflammatory cytokines of atopic dermatitis, i.e., IL-6, IL-10, IL-12p40, and COX-2. Briefly, the Raw264.7 mouse macrophage cell line (ATCC TIB-71) (about 1×10^6 cells) was added into the each well of a 12-well plate and then incubated in a RPMI medium supplemented with 100 U/ml penicillin, 100 ug/ml streptomycin and 10% fetal bovine serum. The cells were treated with the compound of Formula 1 (400 uM) and LPS (1 ug/ml), and then incubated under the condition of 37° C., 5% CO2 for 24 hours. The cells isolated from each group of the medium were treated with a Trizol reagent to extract the total RNA. Each cDNA was prepared according to the vendor's instruction, using a First strand cDNA synthesis kit (Fermentas). The resulting cDNAs (in the same amount for each cDNA) were subject to PCR amplification. The sense and antisense primers used were prepared according to the disclosures, i.e., Zhi-Qiang Chang et al., J. Nutr. Sci. Vitaminol., 2011, 27, p 118-122, JiYeon Lee et al., Biol. Pharm. Bull., 2007, 30(11), p 2043-2051, E. V. Maryukhnich et al., Biol. Sci., 2007, 414, p 242-245. […]

IL-10 = assay: Inhibition of inflammatory cytokine mRNA expression (RT-PCR) in LPS-treated Raw264.7 cells: IL-10; type: cell-based, mouse; details: 400 uM, LPS 1 ug/ml, 24 hours
Description: as §1

IL-12p40 = assay: Inhibition of inflammatory cytokine mRNA expression (RT-PCR) in LPS-treated Raw264.7 cells: IL-12p40; type: cell-based, mouse; details: 400 uM, LPS 1 ug/ml, 24 hours
Description: as §1

COX-2 = assay: Inhibition of inflammatory cytokine mRNA expression (RT-PCR) in LPS-treated Raw264.7 cells: COX-2; type: cell-based, mouse; details: 400 uM, LPS 1 ug/ml, 24 hours
Description: as §1

[2] = 0.03% and 0.1%, applied on affected sites for 10 days

For `Cn1c(N)nc2c(ncn2C)c1=O` [compound of Formula 1, 2-amino-1,9-dimethylpurin-6-one], the “dermatitis scores, in words” value [1, 2] was “significantly reduced”, the “differences of left and right ear thicknesses, in words” value [1, 2] was “significantly reduced” and the “epidermis thicknesses, in words” value [1, 2] was “significantly reduced”. For the same compound, the “numbers of mast cells, in words” value [1, 2] was “significantly reduced”, the “serum IgE levels, in words” value [1, 2] was “significantly reduced” and the “Reducing ratio (%) Dermatitis score” value ([1]; Test group 1 (0.03%)) was 8.96* %. For the same compound, the “Reducing ratio (%) Difference of left and right ear thicknesses” value ([1]; Test group 1 (0.03%)) was 7.69%, the “Reducing ratio (%) Epidermis thickness” value ([1]; Test group 1 (0.03%)) was 36.13*** % and the “Reducing ratio (%) Number of mast cells” value ([1]; Test group 1 (0.03%)) was 7.7%. The “Reducing ratio (%) Serum IgE level” value ([1]; Test group 1 (0.03%)) was 51.76%, the “Reducing ratio (%) Dermatitis score” value ([1]; Test group 2 (0.1%)) was 24.00*** % and the “Reducing ratio (%) Difference of left and right ear thicknesses” value ([1]; Test group 2 (0.1%)) was 38.46%. The “Reducing ratio (%) Epidermis thickness” value ([1]; Test group 2 (0.1%)) was 52.63*** %, the “Reducing ratio (%) Number of mast cells” value ([1]; Test group 2 (0.1%)) was 24.9** % and the “Reducing ratio (%) Serum IgE level” value ([1]; Test group 2 (0.1%)) was 56.46** %. The “IL-6 mRNA expression level” value (IL-6) was “effectively inhibited”, the “IL-10 mRNA expression level” value (IL-10) was “effectively inhibited” and the “IL-12p40 mRNA expression level” value (IL-12p40) was “effectively inhibited”. The “COX-2 mRNA expression level” value (COX-2) was “effectively inhibited”.
